In the NIST ThermoML archive (doi:10.1021/je800325d):
Numbers after ± are expanded uncertainties.

Key:
[1] = xn = mol fraction of the nth substance listed; settings: 101 kPa, Liquid
[2] = refractive index (Na D-line) (dimensionless); xn = mol fraction of the nth substance listed; settings: 101 kPa, Liquid

CC(=O)OCCC(C)C [3-methylbutyl ethanoate] + Cc1ccccc1C
Settings	mass density, [1] [kg/m3]	refractive index, [2]	viscosity, [1] [mPa·s]
303.15 K, x1 = 0.0856	869.7 ± 4	1.4903 ± 0.0008	0.705 ± 0.016
303.15 K, x1 = 0.1739	869.5 ± 4	1.4806 ± 0.0008	0.707 ± 0.016
303.15 K, x1 = 0.2554	868.2 ± 3.9	1.4721 ± 0.0008	0.709 ± 0.016
303.15 K, x1 = 0.3538	867.8 ± 3.8	1.462 ± 0.0008	0.712 ± 0.016
303.15 K, x1 = 0.445	867.4 ± 3.8	1.453 ± 0.0008	0.714 ± 0.016
303.15 K, x1 = 0.5481	866 ± 3.7	1.4436 ± 0.0008	0.718 ± 0.015
303.15 K, x1 = 0.6564	865 ± 3.7	1.4319 ± 0.0008	0.722 ± 0.015
303.15 K, x1 = 0.7531	864.1 ± 3.7	1.4217 ± 0.0008	0.726 ± 0.015
303.15 K, x1 = 0.8542	863.7 ± 3.6	1.4113 ± 0.0008	0.731 ± 0.015
303.15 K, x1 = 0.9538	863.2 ± 3.6	1.4018 ± 0.0008	0.738 ± 0.015
313.15 K, x1 = 0.0856	861.4 ± 4.3	1.488 ± 0.0008	0.622 ± 0.015
313.15 K, x1 = 0.1739	860.8 ± 4.3	1.4779 ± 0.0008	0.623 ± 0.015
313.15 K, x1 = 0.2554	859.8 ± 4.2	1.4695 ± 0.0008	0.623 ± 0.015
313.15 K, x1 = 0.3538	859.1 ± 4.2	1.458 ± 0.0008	0.624 ± 0.015
313.15 K, x1 = 0.445	858.4 ± 4.1	1.4486 ± 0.0008	0.625 ± 0.015
313.15 K, x1 = 0.5481	856.7 ± 4.1	1.4375 ± 0.0008	0.627 ± 0.015
313.15 K, x1 = 0.6564	855.8 ± 4	1.4258 ± 0.0008	0.631 ± 0.015
313.15 K, x1 = 0.7531	855.1 ± 4	1.4157 ± 0.0008	0.635 ± 0.015
313.15 K, x1 = 0.8542	854.7 ± 3.9	1.4062 ± 0.0008	0.64 ± 0.015
313.15 K, x1 = 0.9538	853.9 ± 3.9	1.3961 ± 0.0008	0.646 ± 0.015

COC(=O)c1ccccc1 [methyl benzoate] + Cc1ccc(C)cc1
[1]
Settings	mass density, 303.15 K [kg/m3]	mass density, 313.15 K [kg/m3]	viscosity, 303.15 K [mPa·s]	viscosity, 313.15 K [mPa·s]
x1 = 0.0958	873 ± 4	864.7 ± 4.3	0.616 ± 0.015	0.551 ± 0.015
x1 = 0.2055	898.1 ± 4.1	889.5 ± 4.4	0.693 ± 0.016	0.609 ± 0.015
x1 = 0.3011	919.3 ± 4.2	911.1 ± 4.5	0.759 ± 0.016	0.67 ± 0.015
x1 = 0.399	940.9 ± 4.3	932.3 ± 4.6	0.839 ± 0.017	0.728 ± 0.016
x1 = 0.4951	961.9 ± 4.3	953.1 ± 4.6	0.922 ± 0.017	0.803 ± 0.016
x1 = 0.5988	984.4 ± 4.4	975.7 ± 4.7	1.033 ± 0.018	0.889 ± 0.017
x1 = 0.6973	1006.2 ± 4.5	1000.4 ± 4.8	1.152 ± 0.019	0.992 ± 0.017
x1 = 0.7846	1024.4 ± 4.5	1013 ± 4.8	1.269 ± 0.02	1.093 ± 0.018
x1 = 0.9027	1056 ± 4.6	1047.3 ± 5	1.45 ± 0.021	1.253 ± 0.019
x1 = 0.948	1059.2 ± 4.6	1050.3 ± 5	1.561 ± 0.022	1.322 ± 0.02

refractive index, [2], Standard Abbe refractometry
Settings	x1 = 0.0958	x1 = 0.2055	x1 = 0.3011	x1 = 0.399	x1 = 0.4951	x1 = 0.5988	x1 = 0.6973	x1 = 0.7846	x1 = 0.9027	x1 = 0.948
303.15 K	1.492 ± 0.0007	1.4939 ± 0.0007	1.4947 ± 0.0006	1.4959 ± 0.0006	1.4969 ± 0.0006	1.4982 ± 0.0006	1.5012 ± 0.0006	1.5055 ± 0.0006	1.5122 ± 0.0006	1.5104 ± 0.0006
313.15 K	1.4913 ± 0.0007	1.4922 ± 0.0007	1.4932 ± 0.0006	1.4945 ± 0.0006	1.4952 ± 0.0006	1.4961 ± 0.0006	1.4989 ± 0.0006	1.5014 ± 0.0006	1.5088 ± 0.0006	1.509 ± 0.0006
